Like-named read-outs stand apart in the source and are kept apart here.
What was measured:
PARG = PARG (Homo sapiens, UniProt Q86W56); experiment: Biochemical assay (PARG, TFMU-ADPr substrate)
[1] = tested on: Human breast squamous carcinoma cells HCC1806; experiment: Cell function assay (In-Cell Western, PAR/pADPr after MMS); format: cell-based; conditions: read-out: IC50 (nM) in cell function assay
Experimental: 2. Cell Function Assay (In-Cell Western)
• 1) Human breast squamous carcinoma cells HCC1806 (ATCC) were seeded to the 384-well plate (Corning, #3764) at 20,000 cells/well, incubated for 24 h in a CO2 (5%) incubator at 37° C. to allow for complete adherence of the cells; • 2) 120 nL compounds or DMSO were added to the 384-well plate by Echo 550 (LABCYTE, #550) (final concentrations of compounds: 30000 nM, 10000 nM, 3000 nM, 1000 nM, 300 nM, 100 nM, 30 nM, 10 nM, 3 nM, 1 nM, 0 nM), and then the cells were incubated for 1 h in a CO2 (5%) incubator at 37° C.; • 3) 40 nL MMS (methyl mesylate, Sigma, #129925)(final concentration: 0.5 mM) was added to the plate by Echo 550, and the cells were treated for 1 h in a CO2 (5%) incubator at 37° C.

HCC1806 = experiment: Cell viability assay (CellTiter-Glo); format: cell-based, Human; conditions: HCC1806, 7 days, CellTiter-Glo, read-out: IC50 (nM) in cell viability assay
[2] = 4 nM PARG, 66.2 uM TFMU-ADPr, 3 min at room temperature
[3] = HCC1806, In-Cell Western, MMS treatment
[4] = HCC1806, compound 1 h then 0.5 mM MMS 1 h, PAR/pADPr antibody, In-Cell Western

Chain of PARG (Q86W56 whole entry): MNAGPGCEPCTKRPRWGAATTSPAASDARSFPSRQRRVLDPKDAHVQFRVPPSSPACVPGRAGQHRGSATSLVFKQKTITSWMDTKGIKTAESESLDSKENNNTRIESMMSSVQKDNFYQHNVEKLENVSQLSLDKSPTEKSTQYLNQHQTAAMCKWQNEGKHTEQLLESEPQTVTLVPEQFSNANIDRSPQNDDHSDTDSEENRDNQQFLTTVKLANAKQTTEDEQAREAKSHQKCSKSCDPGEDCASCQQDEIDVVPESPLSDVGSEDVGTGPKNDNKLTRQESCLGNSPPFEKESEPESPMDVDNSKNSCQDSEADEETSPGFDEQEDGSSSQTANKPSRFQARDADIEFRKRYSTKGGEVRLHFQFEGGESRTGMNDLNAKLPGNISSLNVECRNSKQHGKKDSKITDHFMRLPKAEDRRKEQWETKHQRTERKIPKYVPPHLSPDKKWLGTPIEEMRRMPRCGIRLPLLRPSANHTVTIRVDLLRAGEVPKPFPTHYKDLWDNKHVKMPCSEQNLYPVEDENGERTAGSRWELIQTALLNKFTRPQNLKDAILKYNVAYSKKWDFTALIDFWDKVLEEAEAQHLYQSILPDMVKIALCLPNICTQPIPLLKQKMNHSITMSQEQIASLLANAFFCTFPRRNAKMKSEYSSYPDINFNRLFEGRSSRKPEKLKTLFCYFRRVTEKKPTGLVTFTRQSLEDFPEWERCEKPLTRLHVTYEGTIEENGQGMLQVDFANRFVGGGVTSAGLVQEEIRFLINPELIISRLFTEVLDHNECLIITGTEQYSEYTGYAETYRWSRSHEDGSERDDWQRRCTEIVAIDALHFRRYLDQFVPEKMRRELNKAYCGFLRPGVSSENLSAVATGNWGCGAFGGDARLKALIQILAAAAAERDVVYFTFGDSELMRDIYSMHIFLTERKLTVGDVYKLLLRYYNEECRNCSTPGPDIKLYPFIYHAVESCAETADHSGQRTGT

| SMILES | IC50 (PARG; [2]) | IC50 (PARG; PARG, TFMU-ADPr substrate) | IC50 [1, 3] | IC50 [1, 4] | IC50 (HCC1806) | IC50 (HCC1806; Homo sapiens, HCC1806, 168 h) |
| --- | --- | --- | --- | --- | --- | --- |
| [2H]c1nc(-c2nnc(C(F)F)s2)n2cc(S(=O)(=O)NC3(C#N)CC3)cc(N3CCN(C(=O)C4(C)CC4)[C@H](C)C3)c12 [Example 156, (R)—N-(1-cyanocyclopropyl)-3-(5-(difluoromethyl)-1,3,4-thiadiazol-2-yl)-8-(3-methyl-4-(1-methylcyclopropane-1-carbonyl)piperazin-1-yl)imidazo[1,5-a]pyridine-6-sulfonamide-1-d] | < 100 nM | 6.92 nM | 12 nM | < 100 nM | 280 nM | < 500 nM |
| CC(C)C(=O)N1CCN(c2cc(S(=O)(=O)NC3(C#N)CC3)cn3c(-c4nnc(CO)s4)ncc23)CC1 [Example 366, N-(1-cyanocyclopropyl)-3-(5-(hydroxymethyl)-1,3,4-thiadiazol-2-yl)-8-(4-isobutyrylpiperazin-1-yl)imidazo[1,5-a]pyridine-6-sulfonamide] | < 100 nM | 7.94 nM | 70.4 nM | < 100 nM | 7730 nM | 5000 to 30000 nM |
| C[C@@H]1CN(c2cc(S(=O)(=O)NC3(C#N)CC3)cn3c(-c4nnc(C(F)F)s4)nc(Cl)c23)CCN1C(=O)C1(C)CC1 [Example 123, (R)-1-chloro-N-(1-cyanocyclopropyl)-3-(5-(difluoromethyl)-1,3,4-thiadiazol-2-yl)-8-(3-methyl-4-(1-methylcyclopropane-1-carbonyl)piperazin-1-yl)imidazo[1,5-a]pyridine-6-sulfonamide] | < 100 nM | 9.12 nM | 7.13 nM | < 100 nM | 584 nM | 500 to 5000 nM |
| CC1(NS(=O)(=O)c2cc(N3CCC(CO)CC3)c3nnc(-c4nnc(C(F)F)s4)n3c2)CC1 [Example 114, 3-(5-(difluoromethyl)-1,3,4-thiadiazol-2-yl)-8-(4-(hydroxymethyl)piperidin-1-yl)-N-(1-methylcyclopropyl)-[1,2,4]triazolo[4,3-a]pyridine-6-sulfonamide] | < 100 nM | 1.57 nM | 17.5 nM | < 100 nM | 462 nM | 500 to 5000 nM |
| C[C@@H]1CN(c2cc(S(=O)(=O)NC3(C#N)CC3)cn3c(-c4nnc(C(F)F)s4)ncc23)CCN1C(=O)C(C)(C)C [Example 84, (R)-N-(1-cyanocyclopropyl)-3-(5-(difluoromethyl)-1,3,4-thiadiazol-2-yl)-8-(3-methyl-4-pivaloylpiperazin-1-yl)imidazo[1,5-a]pyridine-6-sulfonamide] | < 100 nM | 11 nM | 6.85 nM | < 100 nM | 472 nM | < 500 nM |
| C[C@@H]1CN(c2cc(S(=O)(=O)NC3(C#N)CC3)cn3c(-c4nnc(C(F)F)s4)ncc23)CCN1C(=O)C(C)(C)F [Example 94, (R)-N-(1-cyanocyclopropyl)-3-(5-(difluoromethyl)-1,3,4-thiadiazol-2-yl)-8-(4-(2-fluoro-2-methylpropanoyl)-3-methylpiperazin-1-yl)imidazo[1,5-a]pyridine-6-sulfonamide] | < 100 nM | 9.55 nM | 23.4 nM | < 100 nM | 350 nM | < 500 nM |
| C#CC1(NS(=O)(=O)c2cc(N3CCN(C(=O)C(C)C)CC3)c3nnc(-c4nnc(C(F)F)s4)n3c2)CC1 [Example 102, 3-(5-(difluoromethyl)-1,3,4-thiadiazol-2-yl)-N-(1-ethynylcyclopropyl)-8-(4-isobutyrylpiperazin-1-yl)-[1,2,4]triazolo[4,3-a]pyridine-6-sulfonamide] | < 100 nM | 2.54 nM | 32.1 nM | < 100 nM | 5000 nM | 5000 to 30000 nM |
| [2H]C1([2H])CCC1([2H])NS(=O)(=O)c1cc(N2CCN(C(=O)C(C)C)CC2)c2cnc(-c3nnc(C(F)F)s3)n2c1 (centres unmarked) [Example 57, N-(cyclobutyl-1,2,2-d3)-3-(5-(difluoromethyl)-1,3,4-thiadiazol-2-yl)-8-(4-isobutyrylpiperazin-1-yl)imidazo[1,5-a]pyridine-6-sulfonamide] | < 100 nM | 21.2 nM | 1110 nM | > 1000 nM | – | > 30000 nM |
| C[C@@H]1CN(c2cc(S(=O)(=O)NC3(C)CC3)cn3c(-c4nnc(C(F)F)s4)nnc23)CCN1C(=O)C1(C)CC1 [Example 117, (R)-3-(5-(difluoromethyl)-1,3,4-thiadiazol-2-yl)-8-(3-methyl-4-(1-methylcyclopropane-1-carbonyl)piperazin-1-yl)-N-(1-methylcyclopropyl)-[1,2,4]triazolo[4,3-a]pyridine-6-sulfonamide] | < 100 nM | 8.71 nM | 1.49 nM | < 100 nM | 256 nM | < 500 nM |
| CC(C)C(=O)N1CCN(c2cc(S(=O)(=O)NC3(C#N)COC3)cn3c(-c4nnc(C(F)F)s4)ncc23)CC1 [Example 148, N-(3-cyanooxetan-3-yl)-3-(5-(difluoromethyl)-1,3,4-thiadiazol-2-yl)-8-(4-isobutyrylpiperazin-1-yl)imidazo[1,5-a]pyridine-6-sulfonamide] | < 100 nM | 2.04 nM | 8510 nM | > 1000 nM | 8810 nM | 5000 to 30000 nM |
| N#CC1(NS(=O)(=O)c2cc(N3CCN(C(=O)C4CC(F)(F)C4)CC3)c3cnc(-c4nnc(C(F)F)s4)n3c2)CC1 [Example 146, N-(1-cyanocyclopropyl)-8-(4-(3,3-difluorocyclobutane-1-carbonyl)piperazin-1-yl)-3-(5-(difluoromethyl)-1,3,4-thiadiazol-2-yl)imidazo[1,5-a]pyridine-6-sulfonamide] | < 100 nM | 11.5 nM | 28.9 nM | < 100 nM | 692 nM | 500 to 5000 nM |
| O=S(=O)(NC1(CF)CC1)c1cc(N2CCC(CO)CC2)c2nnc(-c3nnc(C(F)F)s3)n2c1 [Example 108, 3-(5-(difluoromethyl)-1,3,4-thiadiazol-2-yl)-N-(1-(fluoromethyl)cyclopropyl)-8-(4-(hydroxymethyl)piperidin-1-yl)-[1,2,4]triazolo[4,3-a]pyridine-6-sulfonamide] | < 100 nM | 1.5 nM | 22.6 nM | < 100 nM | 520 nM | 500 to 5000 nM |
| COC1(C)CCN(c2cc(S(=O)(=O)NC3(CF)CC3)cn3c(-c4nnc(C(F)F)s4)nnc23)CC1 [Example 111, 3-(5-(difluoromethyl)-1,3,4-thiadiazol-2-yl)-N-(1-(fluoromethyl)cyclopropyl)-8-(4-methoxy-4-methylpiperidin-1-yl)-[1,2,4]triazolo[4,3-a]pyridine-6-sulfonamide] | < 100 nM | 0.37 nM | 72.9 nM | < 100 nM | 916 nM | 500 to 5000 nM |
| CC(C)C(=O)N1CCN(c2cc(S(=O)(=O)NC3CC3)cn3c(-c4nnc(C(F)F)s4)ncc23)CC1 [Example 69, N-cyclopropyl-3-(5-(difluoromethyl)-1,3,4-thiadiazol-2-yl)-8-(4-isobutyrylpiperazin-1-yl)imidazo[1,5-a]pyridine-6-sulfonamide] | < 100 nM | 20 nM | 9.05 nM | < 100 nM | 432 nM | < 500 nM |
| CC(C)C(=O)N1CCN(c2c(F)c(S(=O)(=O)NC3(C#N)CC3)cn3c(-c4nnc(C(F)F)s4)ncc23)CC1 [Example 52, N-(1-cyanocyclopropyl)-3-(5-(difluoromethyl)-1,3,4-thiadiazol-2-yl)-7-fluoro-8-(4-isobutyrylpiperazin-1-yl)imidazo[1,5-a]pyridine-6-sulfonamide] | < 100 nM | 3.66 nM | 53.2 nM | 100 to 500 nM | 738 nM | 500 to 5000 nM |
| CC(C)C(=O)N1CC=C(c2cc(S(=O)(=O)NC3(C#N)CC3)cn3c(-c4nnc(C(F)F)s4)cnc23)CC1 [Example 12, N-(1-cyanocyclopropyl)-3-(5-(difluoromethyl)-1,3,4-thiadiazol-2-yl)-8-(1-isobutyryl-1,2,3,6-tetrahydropyridin-4-yl)imidazo[1,2-a]pyridine-6-sulfonamide] | < 100 nM | 2.4 nM | 9.15 nM | – | 500 nM | < 500 nM |
| CN1CC2(CCN(c3cc(S(=O)(=O)NC4(CF)CC4)cn4c(-c5nnc(C(F)F)s5)nnc34)CC2)CC1=O [Example 112, 3-(5-(difluoromethyl)-1,3,4-thiadiazol-2-yl)-N-(1-(fluoromethyl)cyclopropyl)-8-(2-methyl-3-oxo-2,8-diazaspiro[4.5]decan-8-yl)-[1,2,4]triazolo[4,3-a]pyridine-6-sulfonamide] | < 100 nM | 3.67 nM | 36.3 nM | < 100 nM | – | – |

— patent US20260258035A1, “FIVE-MEMBERED AND SIX-MEMBERED NITROGEN-CONTAINING COMPOUND, AND INTERMEDIATE, PREPARATION METHOD AND USE THEREOF” (HANGZHOU SYNRX THERAPEUTICS BIOMEDICAL TECHNOLOGY CO., LTD., priority 2022, published 2026)
